Laboratory results reported in ChEMBL document CHEMBL4725439, “Direct Comparison of (N)-Methanocarba and Ribose-Containing 2-Arylalkynyladenosine Derivatives as A Receptor Agonists” (ACS Med Chem Lett, 2020).
Calls of active or inactive are those of the source. No cut-off for these calls is given here.

Experiments:
[1] = biological target: T1, Adenosine receptor A3 (Mus musculus, UniProt Q61618); assay: Displacement of [125I]AB-MECA from mouse […] expressed in HEK293 cell membranes assessed as inhibitor constant by radio ligand binding assay
T1 sequence (Q61618 whole entry): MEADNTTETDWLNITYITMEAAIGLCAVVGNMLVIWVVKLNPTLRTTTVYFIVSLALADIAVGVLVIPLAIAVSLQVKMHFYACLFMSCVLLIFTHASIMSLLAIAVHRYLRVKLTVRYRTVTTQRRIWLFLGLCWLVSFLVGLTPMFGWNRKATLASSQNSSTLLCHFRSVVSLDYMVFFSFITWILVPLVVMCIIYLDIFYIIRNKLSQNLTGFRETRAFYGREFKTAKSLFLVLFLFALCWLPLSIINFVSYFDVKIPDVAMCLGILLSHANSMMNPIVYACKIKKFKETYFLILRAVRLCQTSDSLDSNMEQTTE

[2] = biological target: T2, Adenosine receptor A2a (Homo sapiens, UniProt P29274); assay: Displacement of [3H]2-[p-(2-carboxyethyl)phenyl-ethylamino]-5'-N-ethylcarboxamidoadenosine from human A2A receptor expressed in HEK293 cells at 10 uM by radio ligand binding assay relative to control; format: cell-based
[3] = biological target: T3, Adenosine receptor A1 (Homo sapiens) (UniProt P30542); assay: Displacement of [3H]N6-R-phenylisopropyladenosine from human A1AR expressed in HEK293 cells at 10 uM by radio ligand binding assay relative to control; format: cell-based
T3 sequence (whole entry): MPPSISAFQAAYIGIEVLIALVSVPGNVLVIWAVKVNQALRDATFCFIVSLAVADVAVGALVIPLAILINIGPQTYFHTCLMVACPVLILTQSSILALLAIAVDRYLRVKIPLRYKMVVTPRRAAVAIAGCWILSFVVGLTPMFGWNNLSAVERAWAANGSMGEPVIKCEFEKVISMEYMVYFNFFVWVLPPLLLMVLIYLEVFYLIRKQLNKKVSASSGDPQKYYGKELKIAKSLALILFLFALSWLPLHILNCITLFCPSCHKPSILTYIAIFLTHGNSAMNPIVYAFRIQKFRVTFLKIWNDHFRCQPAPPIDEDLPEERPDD

[4] = biological target: T4, Adenosine receptor A1 (Mus musculus) (UniProt Q60612); assay: Displacement of [125I]AB-MECA from recombinant mouse A1AR expressed in HEK293 cells at 10 uM by radio ligand binding assay relative to control; format: cell-based; settings: filed as agonist
T4 sequence (whole entry): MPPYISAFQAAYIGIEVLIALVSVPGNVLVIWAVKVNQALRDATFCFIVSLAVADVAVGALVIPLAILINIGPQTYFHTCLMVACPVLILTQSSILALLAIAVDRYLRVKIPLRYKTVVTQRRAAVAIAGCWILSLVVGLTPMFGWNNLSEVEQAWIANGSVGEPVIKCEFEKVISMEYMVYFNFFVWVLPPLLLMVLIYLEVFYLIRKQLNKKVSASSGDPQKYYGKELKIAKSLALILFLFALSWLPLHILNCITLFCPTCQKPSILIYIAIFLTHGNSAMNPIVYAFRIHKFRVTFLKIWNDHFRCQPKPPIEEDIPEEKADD

[5] = biological target: T5, Adenosine receptor A3 (Homo sapiens, UniProt P0DMS8); assay: Displacement of [125I]N6-(4-amino-3-iodobenzyl)adenosine-5'-N-methyluronamide from human […] expressed in CHO cell membranes assessed as inhibitor constant by radio ligand binding assay
T5 sequence (P0DMS8 whole entry): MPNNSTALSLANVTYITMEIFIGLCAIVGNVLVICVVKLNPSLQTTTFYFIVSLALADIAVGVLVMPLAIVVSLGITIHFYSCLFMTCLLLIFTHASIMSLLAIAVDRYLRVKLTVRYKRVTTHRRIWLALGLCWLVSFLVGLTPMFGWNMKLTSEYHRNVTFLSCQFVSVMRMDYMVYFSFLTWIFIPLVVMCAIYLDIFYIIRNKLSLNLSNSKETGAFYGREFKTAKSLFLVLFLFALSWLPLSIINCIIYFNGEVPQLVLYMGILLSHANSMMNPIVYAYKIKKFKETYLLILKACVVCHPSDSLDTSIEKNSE

[6] = biological target: Beta-3 adrenergic receptor (Homo sapiens) (UniProt P13945); assay: Displacement of [125I]-Pindolol from human beta3 adrenergic receptor expressed in expressed in HEK Flp-In cells measured after 90 mins by microbeta scintillation counting method; format: cell-based
[7] = biological target: Adenosine receptor A2a (Mus musculus) (UniProt Q60613); assay: Displacement of [3H]CGS21680 from mouse A2A receptor expressed in HEK293 cells at 10 uM by radio ligand binding assay relative to control; format: cell-based
[8] = biological target: T2, Adenosine receptor A2a; assay: Displacement of [3H]2-[p-(2-carboxyethyl)phenyl-ethylamino]-5'-N-ethylcarboxamidoadenosine from human A2A receptor expressed in HEK293 cells assessed as inhibitor constant by radio ligand binding assay; format: cell-based
[9] = biological target: T6, Adenosine receptor A1 (Homo sapiens, UniProt P30542); assay: Displacement of [3H]N6-R-phenylisopropyladenosine from human A1AR receptor expressed in HEK293 cells assessed as inhibitory constant by radio ligand binding assay; format: cell-based
T6 sequence (P30542 whole entry): T3 sequence (whole entry)

[10] = Oral bioavailability in Sprague-Dawley rat; format: ADME, organism-based; settings: in vivo
[11] = Stability in Sprague-Dawley rat liver microsomes; format: ADME, Microsome
[12] = Stability in Sprague-Dawley rat plasma; format: ADME, cell-free
[13] = test system: HepG2; assay: Cytotoxicity against human HepG2 cells; format: cell-based
[14] = biological target: T7, Adenosine receptor A1 (Mus musculus, UniProt Q60612); assay: Displacement of [125I]AB-MECA from recombinant mouse A1AR expressed in HEK293 cells assessed as inhibitory constant by radio ligand binding assay; format: cell-based
T7 sequence (Q60612 whole entry): T4 sequence (whole entry)

[15] = biological target: T5, Adenosine receptor A3; assay: Binding affinity to human A3AR assessed as inhibitor constant
[16] = biological target: Sodium-dependent dopamine transporter (Homo sapiens, UniProt Q01959); assay: Displacement of [3H]-Win35428 from human recombinant DAT receptor expressed in stable HEK cells after 90 mins by microbeta scintillation counting method; format: cell-based
[17] = biological target: 5-hydroxytryptamine receptor 2B (Homo sapiens, UniProt P41595); assay: Displacement of [3H]-LSD from recombinant human 5HT2B receptor expressed in stable HEK cells after 90 mins by microbeta scintillation counting method; format: cell-based
[18] = biological target: T8, Adenosine receptor A2b (Homo sapiens) (UniProt P29275); assay: Agonist activity at Gs-coupled human A2B […] receptor expressed in CHO at 10 uM by cAMP based assay; format: functional, cell-based
T8 sequence (whole entry): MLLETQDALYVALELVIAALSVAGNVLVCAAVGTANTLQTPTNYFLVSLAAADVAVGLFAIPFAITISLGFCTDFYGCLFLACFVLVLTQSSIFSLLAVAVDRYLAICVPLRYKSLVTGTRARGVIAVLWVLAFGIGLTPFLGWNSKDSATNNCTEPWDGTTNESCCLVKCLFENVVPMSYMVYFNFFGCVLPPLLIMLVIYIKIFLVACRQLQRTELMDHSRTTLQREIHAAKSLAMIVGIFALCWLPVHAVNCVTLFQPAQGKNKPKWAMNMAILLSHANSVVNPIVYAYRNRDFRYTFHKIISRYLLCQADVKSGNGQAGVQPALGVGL

Sequence of Adenosine receptor A2a (Mus musculus) (Q60613 whole entry): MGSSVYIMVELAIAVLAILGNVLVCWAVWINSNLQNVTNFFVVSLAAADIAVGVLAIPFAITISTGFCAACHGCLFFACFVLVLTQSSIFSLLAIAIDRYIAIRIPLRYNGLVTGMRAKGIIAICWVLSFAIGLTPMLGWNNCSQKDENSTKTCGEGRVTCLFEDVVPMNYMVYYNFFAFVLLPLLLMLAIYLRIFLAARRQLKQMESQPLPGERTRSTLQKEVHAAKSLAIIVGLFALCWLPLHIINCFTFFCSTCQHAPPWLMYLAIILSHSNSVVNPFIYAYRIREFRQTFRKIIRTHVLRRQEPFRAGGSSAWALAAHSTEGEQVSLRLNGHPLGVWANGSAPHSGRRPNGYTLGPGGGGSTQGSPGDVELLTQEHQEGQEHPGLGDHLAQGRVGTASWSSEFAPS
T2 sequence (P29274 whole entry): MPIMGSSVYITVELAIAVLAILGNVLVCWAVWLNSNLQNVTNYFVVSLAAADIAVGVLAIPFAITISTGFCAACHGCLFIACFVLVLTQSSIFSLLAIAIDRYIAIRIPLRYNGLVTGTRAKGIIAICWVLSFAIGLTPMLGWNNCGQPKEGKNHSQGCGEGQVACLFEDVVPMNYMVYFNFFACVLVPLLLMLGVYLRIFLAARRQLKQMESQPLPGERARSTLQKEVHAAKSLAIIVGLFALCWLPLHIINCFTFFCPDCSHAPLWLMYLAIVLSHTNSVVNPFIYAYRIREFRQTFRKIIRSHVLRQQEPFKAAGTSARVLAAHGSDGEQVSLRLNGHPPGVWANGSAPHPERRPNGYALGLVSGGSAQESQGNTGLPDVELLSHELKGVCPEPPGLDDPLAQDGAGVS
Sequence of Beta-3 adrenergic receptor (Homo sapiens) (P13945 whole entry, looked up): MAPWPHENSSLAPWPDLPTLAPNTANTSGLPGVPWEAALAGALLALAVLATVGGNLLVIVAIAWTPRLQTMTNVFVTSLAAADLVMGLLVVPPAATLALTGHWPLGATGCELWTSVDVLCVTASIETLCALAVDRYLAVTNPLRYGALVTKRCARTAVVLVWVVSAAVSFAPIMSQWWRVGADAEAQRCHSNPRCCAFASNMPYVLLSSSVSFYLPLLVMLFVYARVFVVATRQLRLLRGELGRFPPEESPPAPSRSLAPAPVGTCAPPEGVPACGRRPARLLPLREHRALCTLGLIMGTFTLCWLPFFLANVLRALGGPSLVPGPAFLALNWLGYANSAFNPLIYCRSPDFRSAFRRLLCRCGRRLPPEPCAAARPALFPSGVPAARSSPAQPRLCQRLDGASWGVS
Sequence of 5-hydroxytryptamine receptor 2B (P41595 whole entry): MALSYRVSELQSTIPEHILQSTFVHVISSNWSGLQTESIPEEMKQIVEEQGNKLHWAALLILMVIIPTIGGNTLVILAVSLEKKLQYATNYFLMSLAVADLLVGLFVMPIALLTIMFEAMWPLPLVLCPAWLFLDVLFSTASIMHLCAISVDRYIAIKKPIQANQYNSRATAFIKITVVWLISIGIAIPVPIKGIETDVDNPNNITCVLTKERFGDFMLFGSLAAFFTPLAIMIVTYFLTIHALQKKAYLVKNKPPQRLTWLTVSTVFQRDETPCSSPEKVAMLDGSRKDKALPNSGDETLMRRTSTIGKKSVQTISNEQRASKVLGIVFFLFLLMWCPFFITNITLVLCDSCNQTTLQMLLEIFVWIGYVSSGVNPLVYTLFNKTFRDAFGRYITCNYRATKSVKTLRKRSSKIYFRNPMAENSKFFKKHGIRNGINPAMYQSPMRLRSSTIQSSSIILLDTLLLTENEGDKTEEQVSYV
Sequence of Sodium-dependent dopamine transporter (Q01959 whole entry): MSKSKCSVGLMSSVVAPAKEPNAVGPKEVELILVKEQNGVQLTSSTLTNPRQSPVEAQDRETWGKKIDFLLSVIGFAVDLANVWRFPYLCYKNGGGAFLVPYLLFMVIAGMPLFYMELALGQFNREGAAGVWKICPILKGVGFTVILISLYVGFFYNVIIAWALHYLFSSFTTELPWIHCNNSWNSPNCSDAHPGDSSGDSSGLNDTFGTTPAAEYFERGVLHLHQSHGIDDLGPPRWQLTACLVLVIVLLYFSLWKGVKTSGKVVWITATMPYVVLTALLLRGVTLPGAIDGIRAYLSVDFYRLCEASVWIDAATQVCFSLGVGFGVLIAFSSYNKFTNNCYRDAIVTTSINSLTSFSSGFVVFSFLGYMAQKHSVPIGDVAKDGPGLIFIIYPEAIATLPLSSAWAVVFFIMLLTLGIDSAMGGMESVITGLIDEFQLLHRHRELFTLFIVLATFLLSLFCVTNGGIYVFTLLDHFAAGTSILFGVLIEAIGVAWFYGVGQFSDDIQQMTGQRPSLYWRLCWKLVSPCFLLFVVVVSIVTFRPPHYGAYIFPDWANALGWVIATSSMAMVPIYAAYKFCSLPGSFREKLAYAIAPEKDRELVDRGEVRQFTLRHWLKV

CCNc1cc(C#Cc2ccc(F)s2)nc2c1ncn2[C@H]1[C@H](O)[C@H](O)[C@]2(C(=O)NC)C[C@H]12
Ki [1]: 25 nM | inhibition ([2]; filed as agonist): 61% | inhibition [3]: 31% | inhibition [4]: 53% | Ki [5]: 2.78 nM | Activity [6]: Active | inhibition [7]: 4%

CCCNc1nc(C#Cc2ccc(F)s2)nc2c1ncn2[C@H]1[C@H](O)[C@H](O)[C@]2(C(=O)NC)C[C@H]12
Ki [8]: 838 nM | Ki [1]: 10.6 nM | Ki [9]: 3980 nM | bioavailability [10]: 14% | Stabilty [11]: Stable | Ki [5]: 1.13 nM | Stabilty [12]: Stable | Activity [13]: Non-Toxic

CNC(=O)[C@@]12C[C@@H]1[C@@H](n1cnc3c(NC)nc(C#Cc4ccc(F)s4)nc31)[C@H](O)[C@@H]2O
Ki [8]: 4620 nM | Ki [1]: 85 nM | bioavailability [10]: 14% | Stabilty [11]: Stable | Ki [14]: 3260 nM | inhibition [3]: 33% | Ki [5]: 0.28 nM | Stabilty [12]: Stable | inhibition [7]: 5% | Activity [13]: Non-Toxic

CNC(=O)[C@H]1O[C@@H](n2cnc3c(NC)nc(C#Cc4ccc(Cl)s4)nc32)[C@H](O)[C@@H]1O
inhibition [2]: 7% | Ki [14]: 4170 nM | inhibition ([3]; filed as agonist): 58%

CCNC(=O)[C@H]1O[C@@H](n2cnc3c(NC)nc(C#C[C@@H](O)c4ccccc4)nc32)[C@H](O)[C@@H]1O
Ki [15]: 0.75 nM

CCNc1cc(C#Cc2ccc(Cl)s2)nc2c1ncn2[C@H]1[C@H](O)[C@H](O)[C@]2(C(=O)NC)C[C@H]12
bioavailability [10]: 14% | Stabilty [11]: Stable | Stabilty [12]: Stable | Activity [6]: Active | Activity [13]: Non-Toxic

CNC(=O)[C@@]12C[C@@H]1[C@@H](n1cnc3c(NC)cc(C#Cc4ccc(F)s4)nc31)[C@H](O)[C@@H]2O
Ki [1]: 37 nM | inhibition ([2]; filed as agonist): 56% | inhibition [3]: 20% | inhibition [4]: 51% | Ki [5]: 0.896 nM | Activity [6]: Active | inhibition [7]: 6%

CCCNc1nc(C#Cc2ccc(Cl)s2)nc2c1ncn2[C@H]1[C@H](O)[C@H](O)[C@]2(C(=O)NC)C[C@H]12
Activity [6]: Active

CCNc1nc(C#Cc2ccc(Cl)s2)nc2c1ncn2[C@H]1[C@H](O)[C@H](O)[C@]2(C(=O)NC)C[C@H]12
bioavailability [10]: 14% | Stabilty [11]: Stable | Stabilty [12]: Stable | Activity [13]: Non-Toxic

CCCNc1cc(C#Cc2ccc(Cl)s2)nc2c1ncn2[C@H]1[C@H](O)[C@H](O)[C@]2(C(=O)NC)C[C@H]12
Ki [16]: 3940 nM | Ki [17]: 760 nM

CNC(=O)[C@@]12C[C@@H]1[C@@H](n1cnc3c(NC)nc(C#Cc4ccc(Cl)s4)nc31)[C@H](O)[C@@H]2O
Activity [18]: inactive | bioavailability [10]: 14% | Stabilty [11]: Stable | Stabilty [12]: Stable | Activity [13]: Non-Toxic

CNc1nc(C#Cc2ccc(Cl)s2)nc2c1ncn2[C@@H]1O[C@H](C(=O)OC)[C@@H](O)[C@H]1O
inhibition [2]: 8% | inhibition ([3]; filed as agonist): 46% | inhibition [4]: 53% | inhibition [7]: 12%

CCCNc1nc(C#Cc2ccc(Cl)s2)nc2c1ncn2[C@@H]1O[C@H](C(=O)NC)[C@@H](O)[C@H]1O
Ki [9]: 1160 nM | inhibition ([2]; filed as agonist): 49% | Ki [14]: 315 nM

CNC(=O)[C@H]1O[C@@H](n2cnc3c(NC)nc(C#Cc4ccc(F)s4)nc32)[C@H](O)[C@@H]1O
Ki [1]: 1510 nM | Ki [9]: 432 nM | inhibition ([2]; filed as agonist): 45% | Ki [5]: 2.3 nM

CNC(=O)[C@@]12C[C@@H]1[C@@H](n1cnc3c(NC)cc(C#Cc4ccc(Cl)s4)nc31)[C@H](O)[C@@H]2O
Activity [6]: Active

CCCNc1nc(C#Cc2ccc(F)s2)nc2c1ncn2[C@@H]1O[C@H](C(=O)NC)[C@@H](O)[C@H]1O
Ki [8]: 2460 nM | Ki [1]: 435 nM | Ki [9]: 369 nM | Ki [5]: 8.51 nM

CNC(=O)[C@H]1O[C@@H](n2cnc3c(NC)cc(C#Cc4ccc(F)s4)nc32)[C@H](O)[C@@H]1O
Ki [1]: 1200 nM | inhibition [2]: 15% | inhibition ([3]; filed as agonist): 47% | Ki [5]: 26.6 nM

CNc1nc(C#Cc2ccc(Cl)s2)nc2c1ncn2[C@H]1[C@H](O)[C@H](O)[C@]2(C(=O)OC)C[C@H]12
inhibition [2]: 20% | inhibition [3]: 24%

CCOC(=O)[C@@]12C[C@@H]1[C@@H](n1cnc3c(NC)nc(C#Cc4ccc(F)s4)nc31)[C@H](O)[C@@H]2O
Ki [1]: 625 nM | Ki [9]: 1670 nM | inhibition [2]: 27% | Ki [14]: 864 nM | Ki [5]: 10.4 nM

CCOC(=O)[C@@]12C[C@@H]1[C@@H](n1cnc3c(NC)cc(C#Cc4ccc(Cl)s4)nc31)[C@H](O)[C@@H]2O
inhibition [2]: 18% | inhibition [3]: 17% | inhibition [4]: 54% | inhibition [7]: 5%
